Common to all, as to experiment: relative viability (nuclei count vs DMSO), 5 days (fraction); higher = more cells survive
Compound in assay [1]: C1COCCN1C2=NC(=NC3=C2OC4=C3C=CC=N4)C5=CC(=CC=C5)NC(=O)C6=CN=C(C=C6)N + CC(=O)c1c(C)c2cnc(Nc3ccc(N4CCNCC4)cn3)nc2n(C2CCCC2)c1=O [Palbociclib] (partner 0.5 µM)
A digest of the protocol:
(§1)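 Relative viability divides the nuclei count in treated wells by that in vehicle wells. Lung cancer cell lines were seeded in 1536-well plates, dosed by pin tool the next day, and fixed and stained after 5 days in one step with final 0.05% Triton X-100, 1% formaldehyde and 1 ug/ml Hoechst. Dosing was a single drug or a fixed anchor-drug dose plus five library-drug doses (not always all listed) in √10 steps, and values are medians of duplicate plates imaged at 4×.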

Compound in assay [2]: CN1CCC(CNc2ccc3ncc(-c4cccc(OC(F)(F)F)c4)n3n2)CC1 [SGI-1776] + CC(C)C[C@H](NC(=O)[C@H](Cc1ccccc1)NC(=O)c1cnccn1)B(O)O [Bortezomib] (partner 0.002 µM)
A digest of the protocol: as §1

Compound in assay [3]: CN1CCC(CNc2ccc3ncc(-c4cccc(OC(F)(F)F)c4)n3n2)CC1 [SGI-1776] + CS(=O)(=O)CCNCc1ccc(-c2ccc3ncnc(Nc4ccc(OCc5cccc(F)c5)c(Cl)c4)c3c2)o1 [Lapatinib] (partner 2 µM)
The method in brief:
as §1

Compound in assay [4]: CN1CCC(CNc2ccc3ncc(-c4cccc(OC(F)(F)F)c4)n3n2)CC1 [SGI-1776] + COc1cc2c(Oc3ccc(NC(=O)C4(C(=O)Nc5ccc(F)cc5)CC4)cc3F)ccnc2cc1OCCCN1CCOCC1 [Foretinib] (partner 0.25 µM)
A digest of the protocol:
as §1

Regarding LXF-289, the relative viability worked out at 0.603 in assay [1] (first compound 0.02 µM); 0.604 in assay [1] (first compound 0.06325 µM); 0.623 in assay [1] (first compound 0.2 µM); 0.612 in assay [1] (first compound 0.6325 µM); 0.384 in assay [1] (first compound 2 µM); 1.03 in assay [2] (first compound 0.08 µM). The relative viability is 1.04 in assay [2] (first compound 0.8 µM); 1.02 in assay [2] (first compound 2.53 µM); 0.973 in assay [2] (first compound 8 µM); 0.945 in assay [3] (first compound 0.08 µM); 0.941 in assay [3] (first compound 0.8 µM); 0.893 in assay [3] (first compound 2.53 µM). Moreover, the relative viability in assay [3] (first compound 8 µM) is 0.895; in assay [4] (first compound 0.08 µM) it was 0.98; in assay [4] (first compound 0.8 µM), 0.974; in assay [4] (first compound 2.53 µM) it was 1.01; in assay [4] (first compound 8 µM) it was 0.971.

NCI-H23: the relative viability came out at 0.622 in assay [1] (first compound 0.02 µM); 0.555 in assay [1] (first compound 0.06325 µM); 0.457 in assay [1] (first compound 0.2 µM); 0.524 in assay [1] (first compound 0.6325 µM); 0.225 in assay [1] (first compound 2 µM); 0.997 in assay [2] (first compound 0.08 µM). Moreover, the relative viability was found to be 1.09 in assay [2] (first compound 0.8 µM); 1.07 in assay [2] (first compound 2.53 µM); 0.991 in assay [2] (first compound 8 µM); 1.21 in assay [3] (first compound 0.08 µM); 0.984 in assay [3] (first compound 0.8 µM); 0.917 in assay [3] (first compound 2.53 µM). Besides, the relative viability in assay [3] (first compound 8 µM) was 1.17; in assay [4] (first compound 0.08 µM), 0.969; in assay [4] (first compound 0.8 µM) it was 0.932; in assay [4] (first compound 2.53 µM), 0.781; in assay [4] (first compound 8 µM) it was 0.333.

Turning to NCI-H322M, the relative viability in assay [1] (first compound 0.02 µM) was 0.485; in assay [1] (first compound 0.06325 µM), 0.536; in assay [1] (first compound 0.2 µM), 0.54; in assay [1] (first compound 0.6325 µM), 0.48; in assay [1] (first compound 2 µM), 0.384; in assay [2] (first compound 0.08 µM), 1.3. Further, the relative viability turned out to be 1.26 in assay [2] (first compound 0.8 µM); 1.21 in assay [2] (first compound 2.53 µM); 1.07 in assay [2] (first compound 8 µM); 0.56 in assay [3] (first compound 0.08 µM); 0.603 in assay [3] (first compound 0.8 µM); 0.539 in assay [3] (first compound 2.53 µM). For the same cell line, the relative viability in assay [3] (first compound 8 µM) turned out to be 0.569; in assay [4] (first compound 0.08 µM), 0.93; in assay [4] (first compound 0.8 µM), 1.07; in assay [4] (first compound 2.53 µM) it was 0.859; in assay [4] (first compound 8 µM), 0.683.

With NCI-H460, the relative viability turned out to be 0.149 in assay [1] (first compound 0.02 µM); 0.186 in assay [1] (first compound 0.06325 µM); 0.112 in assay [1] (first compound 0.2 µM); 0.146 in assay [1] (first compound 0.6325 µM); 0.0961 in assay [1] (first compound 2 µM); 1.18 in assay [2] (first compound 0.08 µM). The relative viability in assay [2] (first compound 0.8 µM) was found to be 1.2; in assay [2] (first compound 2.53 µM), 1.11; in assay [2] (first compound 8 µM) it was 0.82; in assay [3] (first compound 0.08 µM), 1.16; in assay [3] (first compound 0.8 µM), 0.978; in assay [3] (first compound 2.53 µM), 1.13. Moreover, the relative viability in assay [3] (first compound 8 µM) is 0.863; in assay [4] (first compound 0.08 µM), 1.01; in assay [4] (first compound 0.8 µM), 0.947; in assay [4] (first compound 2.53 µM), 0.998; in assay [4] (first compound 8 µM), 0.716.

NCI-H520: the relative viability stood at 0.206 in assay [1] (first compound 0.02 µM); 0.236 in assay [1] (first compound 0.06325 µM); 0.226 in assay [1] (first compound 0.2 µM); 0.207 in assay [1] (first compound 0.6325 µM); 0.189 in assay [1] (first compound 2 µM); 0.859 in assay [2] (first compound 0.08 µM). Also, the relative viability was 0.776 in assay [2] (first compound 0.8 µM); 0.716 in assay [2] (first compound 2.53 µM); 0.22 in assay [2] (first compound 8 µM); 1.05 in assay [3] (first compound 0.08 µM); 0.91 in assay [3] (first compound 0.8 µM); 0.756 in assay [3] (first compound 2.53 µM). Further, the relative viability amounted to 0.628 in assay [3] (first compound 8 µM); 0.826 in assay [4] (first compound 0.08 µM); 0.895 in assay [4] (first compound 0.8 µM); 0.783 in assay [4] (first compound 2.53 µM); 0.51 in assay [4] (first compound 8 µM).

Take NCI-H647: the relative viability is 0.408 in assay [1] (first compound 0.02 µM); 0.433 in assay [1] (first compound 0.06325 µM); 0.38 in assay [1] (first compound 0.2 µM); 0.279 in assay [1] (first compound 0.6325 µM); 0.25 in assay [1] (first compound 2 µM); 1.24 in assay [2] (first compound 0.08 µM). Further, the relative viability in assay [2] (first compound 0.8 µM) worked out at 0.964; in assay [2] (first compound 2.53 µM), 0.888; in assay [2] (first compound 8 µM) it was 0.837; in assay [3] (first compound 0.08 µM), 1.17; in assay [3] (first compound 0.8 µM), 0.915; in assay [3] (first compound 2.53 µM) it was 1.01. For the same cell line, the relative viability came out at 0.601 in assay [3] (first compound 8 µM); 1.22 in assay [4] (first compound 0.08 µM); 1.24 in assay [4] (first compound 0.8 µM); 1.18 in assay [4] (first compound 2.53 µM); 1.15 in assay [4] (first compound 8 µM).

For NCI-H650, the relative viability is 0.308 in assay [1] (first compound 0.02 µM); 0.325 in assay [1] (first compound 0.06325 µM); 0.35 in assay [1] (first compound 0.2 µM); 0.345 in assay [1] (first compound 0.6325 µM); 0.287 in assay [1] (first compound 2 µM); 0.95 in assay [2] (first compound 0.08 µM). Also, the relative viability in assay [2] (first compound 0.8 µM) turned out to be 0.755; in assay [2] (first compound 2.53 µM), 0.836; in assay [2] (first compound 8 µM), 0.622; in assay [3] (first compound 0.08 µM), 0.99; in assay [3] (first compound 0.8 µM), 0.955; in assay [3] (first compound 2.53 µM), 0.747. In addition, the relative viability turned out to be 0.795 in assay [3] (first compound 8 µM); 1.09 in assay [4] (first compound 0.08 µM); 1.03 in assay [4] (first compound 0.8 µM); 1.02 in assay [4] (first compound 2.53 µM); 0.936 in assay [4] (first compound 8 µM).

In the case of NCI-H661, the relative viability in assay [1] (first compound 0.02 µM) worked out at 0.396; in assay [1] (first compound 0.06325 µM), 0.402; in assay [1] (first compound 0.2 µM) it was 0.387; in assay [1] (first compound 0.6325 µM), 0.375; in assay [1] (first compound 2 µM), 0.374; in assay [2] (first compound 0.08 µM), 0.963. In addition, the relative viability in assay [2] (first compound 0.8 µM) turned out to be 0.858; in assay [2] (first compound 2.53 µM) it was 0.833; in assay [2] (first compound 8 µM) it was 0.649; in assay [3] (first compound 0.08 µM), 0.509; in assay [3] (first compound 0.8 µM), 0.533; in assay [3] (first compound 2.53 µM), 0.646. In addition, the relative viability in assay [3] (first compound 8 µM) worked out at 0.439; in assay [4] (first compound 0.08 µM) it was 1.03; in assay [4] (first compound 0.8 µM), 1.04; in assay [4] (first compound 2.53 µM), 1.07; in assay [4] (first compound 8 µM) it was 1.03.

The values above are taken from the supplement of paper PMC10307832.
